In assay [1] the test system is XBP-1 splicing. The assay is described as follows: Inhibition of endogenous XBP-1 splicing in RPMI 8226 cells with thapsigargin (RT-PCR). In kind it is cell-based, human. The settings on record: 300 nM, 2 hours. On the procedure: PCR amplification products were run on a 4% agarose gel and stained with ethidium bromide. The inverse image is shown.
RPMI 8226 cells were grown in monolayer culture using Dulbecco's Modified Eagle Medium (DMEM) supplemented with 10% fetal calf serum (FCS) at 37° C. and 5% CO2. Compounds were kept as 10 mM stock in DMSO at −20° C. and diluted in medium to 10 μM. Thapsigargin (Tg) was resuspended in DMSO and diluted in medium.
Procedures for measuring XBP-1s and XBP-1u mRNAs have been described previously (Volkmann et al., J. Biol. Chem. 286, 12743-55, 2011). Briefly, total RNA was harvested from cells or tissue using TRIZOL® (Invitrogen) according to the manufacture's procedures. After ethanol precipitation and resuspension of the RNA, RIBOGREEN® (Invitrogen) was used to quantify the yield- and normalize the RNA concentration in the source tube containing isolated RNA. RT-PCR was performed by oligo dT priming, […]® II (Invitrogen) and reverse transcription using the […] GOLD® Kit (Applied Biosystems) according to the manufacturer's protocols. Primers for human XBP-1 were
All DNA oligos were purchased from IDT DNA Technologies. PCR reactions were run on a Bio-Rad PTC-100® 96-well thermocycler; heating at 94° C. for 30 seconds, annealing at 58° C. for 30 seconds polymerizing at 72° C. for 30 seconds for 35 cycles.

The subject of assay [2] is human myeloma RPMI8226 tumor xenografts. The assay is described as follows: RPMI8226 xenograft efficacy model. In kind it is in vivo, SCID mice. The settings on record: after cessation of therapy. On the procedure: SCID mice are evaluated for their ability to support implantation of desired tumor cells in support of model development and characterization. Mice are injected intravenously […] or implanted either subcutaneously (SC) or intraperitoneally (IP). To generate a relevant animal model mimicking human disease, it is desirable that all three approaches are evaluated for improved implantation rates and relevant disease progression, as is well known in the art. SC injections provide an easy way to measure tumor growth and efficacy, and IV and IP injections represent a more physiologically relevant model of human tumor spread. SC injections are given primarily in the flank, while IV injections are administered in the tail vein. Mice are manually restrained for SC and IP injections, and a Broome mouse restrainer is used for IV injections.
SCID mice are implanted with tumor cells (human RPMI8226 myeloma cells) via IP, IV or SC routes based on the results from the xenograft model development studies (above). Mice are treated with compound or mock treated (vehicle) for a period of up to 4-5 weeks. Compound administration can be via IV, IP, PO or SC routes. […]
Mice are monitored for tumor growth, regression and general health. […] Tumor growth is measured by calipers, ultrasound, or by abdominal lavage. Biomarkers in the blood or tumor can evaluated (primarily XBP-1 splicing). […]

For assay [3], the system named is XBP-1 splicing. In words: XBP-1 splicing inhibition in livers and kidneys of CB17 SCID mice after tunicamycin. Type of assay: in vivo. The settings on record: 1 mg/kg IP, alone, relative to PBS treated mice. The source says:
The preclinical validation strategy employs a set of animal models representing normal tissues under chemical stress and multiple myeloma xenographs. The normal animal model is employed as a surrogate model where dose-related on-target activity of compounds can be confirmed in tissues sensitive to standard UPR inducing agents such as tunicamycin (Wu et al., Dev Cell. 2007 September; 13(1d):351-64). […] Upon induction with tunicamycin, tissues induce active XBP-1 mRNA splicing, and this activity is suppressed by IRE-1α inhibitors. This on-target ER stress animal model is a useful screening and early pharmacokinetic tool.
CB17 SCID mice were treated with 1 mg/kg tunicamycin by intraperitoneal (IP) injection at time 0 (T=0). Two hours later, compound A formulated in 10% hydroxy beta propyl cyclo dextran HBPCD was administered by IP injection. Doses were 50 mg/kg, 25 mg/kg and 10 mg/kg (4 mice in each group). Mice were sacrificed two hours later (4 hours from T=0), and the designated organs were harvested (FIG. 3A).
RT-PCR analysis was performed using murine-specific XBP-1 primers from total RNA harvested from specified organs. […] Each lane represents an individual mouse where RNA was harvested and RT-PCR was performed. Method of RNA extraction and RT-PCR analysis is described in Volkmann et al., J. Biol. Chem. 286, 12743-55, 2011. […]

Take `C/C=C(/C)C(=O)O[C@H]1C(C)=C2[C@H]([C@@H]1OC(=O)CCCCCCC)[C@@](C)(OC(C)=O)C[C@H](OC(=O)CCC)[C@@]1(O)[C@H]2OC(=O)[C@@]1(C)O` [Thapsigargin]: the “conversion of XBP-1u to XBP-1s” value in the assay on XBP-1 splicing [1] is on record as “near complete conversion of XBP-1u to XBP-1s”.
For the compound `CC(C)C[C@H](NC(=O)[C@H](Cc1ccccc1)NC(=O)c1cnccn1)B(O)O` [bortezomib, [(1R)-3-methyl-1-[[(2S)-1-oxo-3-phenyl-2-[(pyrazinylcarbonyl)amino]propyl]amino]butyl]boronic acid], the tumor recurrence entry in assay [2] was “tumors often recurred and grew into large masses”.
tunicamycin: in the assay with XBP-1 splicing [3], the “induction of XBP-1s” value is “induces XBP-1 spliced”.
